Data from paper PMC6576746, “Rational discovery of dual-indication multi-target PDE/Kinase inhibitor for precision anti-cancer therapy using structural systems pharmacology” (PLoS Computational Biology, 2019).

Experiments:
Assay in all cases: biochemical
Set-up in all cases: DiscoverX KinomeScan competition binding assay across human kinases; per cent of control at 10 and 100 uM
PKAC-beta = target: T1, PKAC-beta (Homo sapiens, UniProt P22694); details: competition binding, % of control; read-out: Percent Control (100 uM Levosimendan)
T1 construct: gene PRKACB
Procedure, shortened: (§1)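 KinomeScan competition binding was run across a human kinase panel at 10 μM and 100 μM levosimendan. Results are %control = (test − positive control)/(negative control − positive control) × 100.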

CSF1R = CSF1R (Homo sapiens, UniProt P07333); details: competition binding, % of control
Sequence of CSF1R (P07333 whole entry): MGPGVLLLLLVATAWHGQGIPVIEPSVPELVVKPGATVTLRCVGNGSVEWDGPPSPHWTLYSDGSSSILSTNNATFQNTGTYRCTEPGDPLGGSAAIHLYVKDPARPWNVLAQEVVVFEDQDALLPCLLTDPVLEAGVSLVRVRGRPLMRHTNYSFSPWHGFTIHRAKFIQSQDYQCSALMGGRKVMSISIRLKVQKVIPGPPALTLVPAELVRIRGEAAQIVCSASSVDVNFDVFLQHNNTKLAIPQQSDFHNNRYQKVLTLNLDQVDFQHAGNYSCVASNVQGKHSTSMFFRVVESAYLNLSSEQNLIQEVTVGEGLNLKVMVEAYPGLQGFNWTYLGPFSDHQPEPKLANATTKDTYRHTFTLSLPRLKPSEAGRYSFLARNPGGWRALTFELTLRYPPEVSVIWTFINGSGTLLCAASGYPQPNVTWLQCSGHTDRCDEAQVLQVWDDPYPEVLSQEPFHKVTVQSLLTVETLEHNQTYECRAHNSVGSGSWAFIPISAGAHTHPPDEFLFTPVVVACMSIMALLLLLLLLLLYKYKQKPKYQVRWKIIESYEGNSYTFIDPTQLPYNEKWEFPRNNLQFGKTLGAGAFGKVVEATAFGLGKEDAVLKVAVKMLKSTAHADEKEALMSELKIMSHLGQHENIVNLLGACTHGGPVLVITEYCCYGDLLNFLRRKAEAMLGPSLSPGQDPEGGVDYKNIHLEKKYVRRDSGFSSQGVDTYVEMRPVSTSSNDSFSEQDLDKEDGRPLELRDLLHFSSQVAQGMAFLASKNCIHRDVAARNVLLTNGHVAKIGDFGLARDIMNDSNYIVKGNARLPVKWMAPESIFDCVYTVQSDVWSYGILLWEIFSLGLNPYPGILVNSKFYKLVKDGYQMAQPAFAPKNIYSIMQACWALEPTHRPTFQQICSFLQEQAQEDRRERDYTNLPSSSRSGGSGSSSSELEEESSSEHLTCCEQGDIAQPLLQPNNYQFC
Procedure, shortened: as §1

DYRK1A = DYRK1A (Homo sapiens, UniProt Q13627); details: competition binding, % of control; read-out: Percent Control (100 uM Levosimendan)
Procedure, shortened: as §1

MARK1 = MARK1 (Homo sapiens, UniProt Q9P0L2); details: competition binding, % of control; read-out: Percent Control (100 uM Levosimendan)
Procedure, shortened: as §1

CAMK2G = CAMK2G (Homo sapiens, UniProt Q13555); details: competition binding, % of control; read-out: Percent Control (100 uM Levosimendan)
Procedure, shortened: as §1

AURKB = AURKB (Homo sapiens, UniProt Q96GD4); details: competition binding, % of control
Sequence of AURKB (Q96GD4 whole entry): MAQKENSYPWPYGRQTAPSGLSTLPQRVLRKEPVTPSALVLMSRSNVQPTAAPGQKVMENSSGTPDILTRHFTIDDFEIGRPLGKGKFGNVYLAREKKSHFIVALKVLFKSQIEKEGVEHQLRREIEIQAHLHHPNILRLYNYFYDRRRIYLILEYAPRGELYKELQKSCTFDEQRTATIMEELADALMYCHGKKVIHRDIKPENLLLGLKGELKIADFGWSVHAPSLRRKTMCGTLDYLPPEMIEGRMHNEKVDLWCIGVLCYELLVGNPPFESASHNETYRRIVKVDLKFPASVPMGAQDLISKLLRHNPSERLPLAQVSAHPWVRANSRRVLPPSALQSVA
Procedure, shortened: as §1

BUB1 = BUB1 (Homo sapiens, UniProt O43683); details: competition binding, % of control
Sequence of BUB1 (O43683 whole entry): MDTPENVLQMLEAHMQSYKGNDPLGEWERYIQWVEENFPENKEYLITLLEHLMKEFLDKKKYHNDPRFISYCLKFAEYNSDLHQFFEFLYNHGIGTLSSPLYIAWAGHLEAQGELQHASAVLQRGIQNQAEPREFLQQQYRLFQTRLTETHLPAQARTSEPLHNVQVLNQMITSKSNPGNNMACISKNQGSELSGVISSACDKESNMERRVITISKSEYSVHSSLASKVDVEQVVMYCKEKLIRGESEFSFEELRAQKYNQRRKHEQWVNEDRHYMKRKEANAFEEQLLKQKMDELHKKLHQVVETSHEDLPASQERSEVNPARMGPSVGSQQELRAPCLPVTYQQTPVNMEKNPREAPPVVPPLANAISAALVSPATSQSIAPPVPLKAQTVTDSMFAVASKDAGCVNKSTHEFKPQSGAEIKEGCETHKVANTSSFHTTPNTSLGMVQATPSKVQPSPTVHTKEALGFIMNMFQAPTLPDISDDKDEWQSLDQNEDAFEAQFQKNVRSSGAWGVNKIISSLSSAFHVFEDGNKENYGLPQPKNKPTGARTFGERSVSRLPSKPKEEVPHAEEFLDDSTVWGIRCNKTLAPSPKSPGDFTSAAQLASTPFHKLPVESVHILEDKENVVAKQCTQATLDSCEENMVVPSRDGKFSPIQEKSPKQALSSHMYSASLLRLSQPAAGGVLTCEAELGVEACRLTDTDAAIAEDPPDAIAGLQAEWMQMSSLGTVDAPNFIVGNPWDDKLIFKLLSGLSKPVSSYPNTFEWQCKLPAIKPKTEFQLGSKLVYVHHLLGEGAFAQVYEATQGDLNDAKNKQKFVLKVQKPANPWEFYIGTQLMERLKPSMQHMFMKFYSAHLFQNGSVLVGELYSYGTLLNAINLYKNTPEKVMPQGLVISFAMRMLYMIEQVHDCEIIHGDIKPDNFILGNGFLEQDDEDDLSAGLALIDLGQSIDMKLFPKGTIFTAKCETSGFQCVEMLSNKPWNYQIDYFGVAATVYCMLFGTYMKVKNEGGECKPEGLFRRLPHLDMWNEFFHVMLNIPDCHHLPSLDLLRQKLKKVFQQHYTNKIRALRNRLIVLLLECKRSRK
Procedure, shortened: as §1

NIM1 = target: T2, NIM1 (Homo sapiens, UniProt Q8IY84); details: competition binding, % of control; read-out: Percent Control (100 uM Levosimendan)
T2 construct: gene NIM1K
T2 sequence (Q8IY84 whole entry): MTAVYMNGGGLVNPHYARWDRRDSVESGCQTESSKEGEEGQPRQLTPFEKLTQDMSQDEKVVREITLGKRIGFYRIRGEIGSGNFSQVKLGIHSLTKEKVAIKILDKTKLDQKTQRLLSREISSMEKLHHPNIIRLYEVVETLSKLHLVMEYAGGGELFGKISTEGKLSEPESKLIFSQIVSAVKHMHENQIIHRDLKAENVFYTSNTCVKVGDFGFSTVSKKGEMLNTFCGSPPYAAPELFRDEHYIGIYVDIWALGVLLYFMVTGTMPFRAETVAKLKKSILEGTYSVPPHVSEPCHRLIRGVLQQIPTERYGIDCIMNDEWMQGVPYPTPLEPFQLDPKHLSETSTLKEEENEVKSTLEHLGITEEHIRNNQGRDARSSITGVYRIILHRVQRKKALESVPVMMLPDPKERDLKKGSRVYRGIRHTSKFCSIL
Procedure, shortened: as §1

[1] = target: T3, RSK4(Kin.Dom.1-N-terminal) (Homo sapiens, UniProt Q9UK32); details: competition binding, % of control; read-out: Percent Control (100 uM Levosimendan)
T3 construct: gene RPS6KA6; Kin.Dom.1-N-terminal
Procedure, shortened: as §1

MRCKB = target: T4, MRCKB (Homo sapiens, UniProt Q9Y5S2); details: competition binding, % of control; read-out: Percent Control (100 uM Levosimendan)
T4 construct: gene CDC42BPB
Procedure, shortened: as §1

SYK = SYK (Homo sapiens, UniProt P43405); details: competition binding, % of control; read-out: Percent Control (100 uM Levosimendan)
Procedure, shortened: as §1

CLK3 = CLK3 (Homo sapiens, UniProt P49761); details: competition binding, % of control; read-out: Percent Control (100 uM Levosimendan)
Sequence of CLK3 (P49761 whole entry): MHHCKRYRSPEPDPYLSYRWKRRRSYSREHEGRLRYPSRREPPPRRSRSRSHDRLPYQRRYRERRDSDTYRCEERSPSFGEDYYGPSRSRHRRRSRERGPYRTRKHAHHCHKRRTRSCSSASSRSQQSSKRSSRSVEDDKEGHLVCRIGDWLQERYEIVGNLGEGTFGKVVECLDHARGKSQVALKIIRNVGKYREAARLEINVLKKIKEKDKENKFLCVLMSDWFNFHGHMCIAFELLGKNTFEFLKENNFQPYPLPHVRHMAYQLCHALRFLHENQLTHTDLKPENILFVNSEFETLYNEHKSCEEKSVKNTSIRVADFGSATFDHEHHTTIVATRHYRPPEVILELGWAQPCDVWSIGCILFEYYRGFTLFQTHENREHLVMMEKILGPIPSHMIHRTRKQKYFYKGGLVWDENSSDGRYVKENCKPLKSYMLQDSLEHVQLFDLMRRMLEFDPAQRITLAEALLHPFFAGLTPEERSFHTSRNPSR
Procedure, shortened: as §1

TESK1 = TESK1 (Homo sapiens, UniProt Q15569); details: competition binding, % of control; read-out: Percent Control (100 uM Levosimendan)
Procedure, shortened: as §1

PCTK3 = target: T5, PCTK3 (Homo sapiens, UniProt Q07002); details: competition binding, % of control; read-out: Percent Control (100 uM Levosimendan)
T5 construct: gene CDK18
T5 sequence (Q07002 whole entry): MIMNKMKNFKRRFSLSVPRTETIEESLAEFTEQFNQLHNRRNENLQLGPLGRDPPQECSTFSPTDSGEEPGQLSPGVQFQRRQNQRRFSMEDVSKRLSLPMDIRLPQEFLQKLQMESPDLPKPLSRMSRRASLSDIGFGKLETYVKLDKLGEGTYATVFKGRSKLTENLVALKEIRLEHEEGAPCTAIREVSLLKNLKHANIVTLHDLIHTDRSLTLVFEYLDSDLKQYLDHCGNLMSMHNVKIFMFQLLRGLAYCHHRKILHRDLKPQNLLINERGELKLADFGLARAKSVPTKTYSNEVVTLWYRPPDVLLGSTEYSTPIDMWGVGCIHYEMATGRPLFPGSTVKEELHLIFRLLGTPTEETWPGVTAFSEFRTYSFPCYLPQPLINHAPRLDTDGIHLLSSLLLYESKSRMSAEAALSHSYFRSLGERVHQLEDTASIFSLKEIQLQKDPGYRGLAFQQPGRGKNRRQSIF
Procedure, shortened: as §1

MLK2 = target: T6, MLK2 (Homo sapiens, UniProt Q02779); details: competition binding, % of control; read-out: Percent Control (100 uM Levosimendan)
T6 construct: gene MAP3K10
Procedure, shortened: as §1

ERK3 = target: T7, ERK3 (Homo sapiens, UniProt Q16659); details: competition binding, % of control; read-out: Percent Control (100 uM Levosimendan)
T7 construct: gene MAPK6
Procedure, shortened: as §1

MLK3 = target: T8, MLK3 (Homo sapiens, UniProt Q16584); details: competition binding, % of control; read-out: Percent Control (100 uM Levosimendan)
T8 construct: gene MAP3K11
Procedure, shortened: as §1

MYO3B = MYO3B (Homo sapiens, UniProt Q8WXR4); details: competition binding, % of control; read-out: Percent Control (100 uM Levosimendan)
Procedure, shortened: as §1

EGFR(G719S) = EGFR(G719S) (Homo sapiens, UniProt P00533, G719S); details: competition binding, % of control
Sequence of EGFR(G719S) (P00533 whole entry G719S): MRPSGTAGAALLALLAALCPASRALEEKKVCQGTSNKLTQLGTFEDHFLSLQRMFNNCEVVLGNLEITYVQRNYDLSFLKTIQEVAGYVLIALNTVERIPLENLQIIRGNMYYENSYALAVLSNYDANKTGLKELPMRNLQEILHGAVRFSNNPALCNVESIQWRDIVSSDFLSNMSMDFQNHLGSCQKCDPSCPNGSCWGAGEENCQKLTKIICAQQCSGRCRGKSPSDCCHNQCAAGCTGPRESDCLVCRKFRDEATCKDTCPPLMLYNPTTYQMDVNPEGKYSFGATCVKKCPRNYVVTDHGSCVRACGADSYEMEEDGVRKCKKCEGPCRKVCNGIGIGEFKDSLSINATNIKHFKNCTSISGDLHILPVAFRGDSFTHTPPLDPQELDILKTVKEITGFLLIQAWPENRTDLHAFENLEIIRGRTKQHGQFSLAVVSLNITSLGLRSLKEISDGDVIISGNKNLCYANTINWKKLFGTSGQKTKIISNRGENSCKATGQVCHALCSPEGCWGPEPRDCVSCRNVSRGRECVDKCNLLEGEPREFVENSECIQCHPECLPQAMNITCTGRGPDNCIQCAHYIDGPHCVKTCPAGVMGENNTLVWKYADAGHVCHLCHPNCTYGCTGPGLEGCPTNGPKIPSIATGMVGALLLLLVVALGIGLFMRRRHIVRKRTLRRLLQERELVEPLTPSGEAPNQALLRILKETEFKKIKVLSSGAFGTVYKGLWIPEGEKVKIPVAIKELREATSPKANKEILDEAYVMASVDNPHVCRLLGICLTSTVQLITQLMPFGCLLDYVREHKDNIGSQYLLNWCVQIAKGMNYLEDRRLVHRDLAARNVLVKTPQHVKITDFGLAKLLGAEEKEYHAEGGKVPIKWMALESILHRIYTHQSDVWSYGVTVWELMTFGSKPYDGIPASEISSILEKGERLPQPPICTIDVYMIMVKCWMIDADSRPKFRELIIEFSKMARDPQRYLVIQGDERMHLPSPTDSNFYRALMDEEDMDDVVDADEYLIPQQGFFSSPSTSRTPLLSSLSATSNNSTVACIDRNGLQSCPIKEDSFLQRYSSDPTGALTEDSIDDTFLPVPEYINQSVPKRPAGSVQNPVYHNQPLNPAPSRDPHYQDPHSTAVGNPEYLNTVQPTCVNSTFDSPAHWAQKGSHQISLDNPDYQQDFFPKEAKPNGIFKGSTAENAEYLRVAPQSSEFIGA
Procedure, shortened: as §1

[2] = read-out: Percent Control (10 uM Levosimendan)
[3] = read-out: Percent Control (100 uM Levosimendan)

remaining binding at 100 µM (PKAC-beta): 64%
remaining binding at 10 µM (CSF1R; [2]): 78%
remaining binding at 100 µM (CSF1R; [3]): 40%
remaining binding at 100 µM (DYRK1A): 89%
remaining binding at 100 µM (MARK1): 85%
remaining binding at 100 µM (CAMK2G): 88%
remaining binding at 10 µM (AURKB; [2]): 75%
remaining binding at 100 µM (AURKB; [3]): 28%
remaining binding at 10 µM (BUB1; [2]): 94%
remaining binding at 100 µM (BUB1; [3]): 53%
remaining binding at 100 µM (NIM1): 65%
remaining binding at 100 µM [1]: 100%
remaining binding at 100 µM (MRCKB): 74%
remaining binding at 100 µM (SYK): 78%
remaining binding at 100 µM (CLK3): 68%
remaining binding at 100 µM (TESK1): 96%
remaining binding at 100 µM (PCTK3): 100%
remaining binding at 100 µM (MLK2): 81%
remaining binding at 100 µM (ERK3): 79%
remaining binding at 100 µM (MLK3): 73%
remaining binding at 100 µM (MYO3B): 100%
remaining binding at 10 µM (EGFR(G719S); [2]): 79%
remaining binding at 100 µM (EGFR(G719S); [3]): 41%
Structure (SMILES): C[C@@H]1CC(=O)NN=C1c1ccc(NN=C(C#N)C#N)cc1 [levosimendan]
